26 molecules from EP2064211B1, “IMIDAZO[1,2-A]PYRIDINE HYDROXYMATE COMPOUNDS THAT ARE INHIBITORS OF HISTONE DEACETYLASE” (MEI Pharma, Inc., priority 2006, dated 2008) can be followed below.

One experiment addresses T1, HDAC1 enzyme (Homo sapiens, UniProt Q13547).
T1 construct: Amplification of human HDAC1 coding region from this cDNA library was cloned separately into the baculovirus expression pDEST20 vector; made in house; host or cells: SF9 insect cells (baculovirus, pDEST20 vector)
The experiment is described as follows: In vitro HDAC assay for determination of IC50 values (BIOMOL fluorescent-based HDAC activity assay). In kind it is biochemical. The settings on record: recombinant GST-HDAC1, 500 uM Flur de lys substrate, room temperature 2 h; read-out: IC50 (HDAC 1). The protocol:
Human cDNA library was prepared using cultured SW620 cells. Amplification of human HDAC1 coding region from this cDNA library was cloned separately into the baculovirus expression pDEST20 vector (GATEWAY Cloning Technology, Invitrogen Pte Ltd). The pDEST20-HDAC1 construct was confirmed by DNA sequencing. Recombinant baculovirus was prepared using the Bac-To-Bac method following the manufacturer's instruction (Invitrogen Pte Ltd).
Expression of GST-HDAC1 was done by infecting SF9 cells (Invitrogen Pte Ltd) with pDEST20-HDAC1 baculovirus at MOI=1 for 48 h. Soluble cell lysate was incubated with pre-equilibrated Glutathione Sepharose 4B beads (Amersham) at 4°C for 2 h. The beads were washed with PBS buffer for 3 times. The GST-HDAC1 protein was eluted by elution buffer containing 50 mM Tris, pH8.0, 150mM NaCl, 1% Triton X-100 and 10mM or 20mM reduced Glutathione. The purified GST-HDAC1 protein was dialyzed with HDAC storage buffer containing 10mM Tris, pH7.5, 100mM NaCl and 3mM MgCl2. 20% Glycerol was added to purified GST-HDAC1 protein before storage at -80°C.
The assay has been carried out in 96 well format and the BIOMOL fluorescent-based HDAC activity assay has been applied. The reaction composed of assay buffer, containing 25 mM Tris pH 7.5, 137 mM NaCl, 2.7 mM KCl, 1 mM MgCl2, 1 mg/ml BSA, tested compounds, an appropriate concentration of HDAC1 enzyme, 500 uM Flur de lys generic substrate for HDAC1 enzyme and subsequently was incubated at room temperature for 2 h. Flur de lys Developer was added and the reaction was incubated for 10 min. Briefly, deacetylation of the substrate sensitizes it to the developer, which then generates a fluorophore. The fluorophore is excited with 360 nm light and the emitted light (460 nm) is detected on a fluorometric plate reader (Tecan Ultra Microplate detection system, Tecan Group Ltd.).
The analytical software, Prism 4.0 (GraphPad Software Inc) has been used to generate IC50 from a series of data. IC50 is defined as the concentration of compound required for 50% inhibition of HDAC enzyme activity.

The next experiment has as its system Colo205 cells. The experiment is described as follows: Cell-based proliferation assay for determination of GI50 values (CyQUANT). Further details: species or system Human. The settings on record: concentration for 50% inhibition of cell growth, read-out: Gl50 (Colo205). As for the experimental part:
Human cancer cell lines (e.g. Colo205) were obtained from ATCC. Colo205 cells were cultivated in RPMI 1640 containing 2 mM L-Glutamine, 5% FBS, 1.0 mM Na Pyruvate. Colo205 cells were seeded in 96-wells plate at 5000 cells per well. The plates were incubated at 37°C, 5% CO2, for 24 h. Cells were treated with compounds at various concentrations for 96 h. Cell growth was then monitored using CyQUANT® cell proliferation assay (Invitrogen Pte Ltd). Dose response curves were plotted to determine Gl50 values for the compounds using XL-fit (ID Business Solution, Emeryville, CA). Gl50 is defined as the concentration of compound required for 50% inhibition of cell growth.

The mark [1] stands for this setting: Homo sapiens, COLO 205, compound treatment 96 h.

Like-named read-outs stand apart in the source and are kept apart here.

T1 sequence (Q13547 whole entry): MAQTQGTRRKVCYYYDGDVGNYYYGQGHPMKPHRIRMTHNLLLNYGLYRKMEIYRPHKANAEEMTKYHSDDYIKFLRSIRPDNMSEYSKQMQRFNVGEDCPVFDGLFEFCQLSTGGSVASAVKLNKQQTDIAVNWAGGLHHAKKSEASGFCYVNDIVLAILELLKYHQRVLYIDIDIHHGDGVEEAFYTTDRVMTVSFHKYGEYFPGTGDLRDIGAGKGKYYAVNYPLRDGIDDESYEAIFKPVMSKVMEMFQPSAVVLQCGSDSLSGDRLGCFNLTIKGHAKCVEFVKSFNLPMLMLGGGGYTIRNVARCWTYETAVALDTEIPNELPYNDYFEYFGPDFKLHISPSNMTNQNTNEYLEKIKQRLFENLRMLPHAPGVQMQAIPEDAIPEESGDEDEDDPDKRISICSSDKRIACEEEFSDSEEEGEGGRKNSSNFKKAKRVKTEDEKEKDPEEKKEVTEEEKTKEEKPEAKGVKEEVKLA

As for `CN(Cc1c(C(C)(C)C)nc2cc(/C=C/C(=O)NO)ccn12)CC(C)(C)C` [Compound 33, 3-(-tert-Butyl-3-{[(2,2-dimethyl-propyl)-methyl-amino]-methyl}-imidazo[1,2-a]pyridin-7-yl)-N-hydroxy-acrylamide], the IC50 turned out to be 780 nM on HDAC1 enzyme and 6300 nM in the experiment on Colo205 cells (setting [1]).
`CN(CCC(C)(C)C)Cc1c(C(C)(C)C)nc2cc(C=CC(=O)NO)ccn12` [Compound 37, 3-(2-tert-Butyl-3-{[(3,3-dimethyl-butyl)-methyl-amino]-methyl}-imidazo[1,2-a]pyridin 7-yl)-N-hydroxy-acrylamide]: the IC50 at HDAC1 enzyme was determined as 270 nM; with Colo205 cells (setting [1]), 730 nM.
On the same counts, the results for `CCCCc1nc2cc(C=CC(=O)NO)ccn2c1CN(CC)CC(C)(C)C` [Compound 43, 3-(2-Butyl-3-{[(2,2-dimethyl-propyl)-ethyl-amino]-methyl}-imidazo[1,2-a]pyridin-7-yl)-N-hydroxy-acrylamide] are 160 nM and 950 nM.
On the same counts, the results for `CCCCc1nc2cc(C=CC(=O)NO)ccn2c1CN(CC)CC(C)CCC` (stereo not shown) [Compound 44, 3-(2-Butyl-3-{[ethyl-(2-methyl-pentyl)-amino]-methyl}-imidazo[1,2-a]pyridin-7-yl)-N-hydroxy-acrylamide] are 80 nM and 490 nM.
On the same counts, the results for `CCCN(CC)Cc1c(C(C)(C)C)nc2cc(C=CC(=O)NO)ccn12` [Compound 13, 3-{2-tert-Butyl-3-[(ethyl-propyl-amino)-methyl]-imidazo[1,2-a]pyridin-7-yl}-N-hydroxy-acrylamide] are 270 nM and 1800 nM.
With `CCCCN(CC)Cc1c(C(C)(C)C)nc2cc(C=CC(=O)NO)ccn12` [Compound 16, 3-{2-tert-Butyl-3-[(butyl-ethyl-amino)-methyl]-imidazo[1,2-a]pyridin-7-yl}-N-hydroxy-acrylamide], the IC50 was 60 nM on HDAC1 enzyme and 680 nM in the experiment with Colo205 cells (setting [1]).
Taken in the same sequence, the figures for `CCCCCc1nc2cc(C=CC(=O)NO)ccn2c1CNC(C)(C)C` [Compound 53, 3-[3-(tert-Butylamino-methyl)-2-pentyl-imidazo[1,2-a]pyridin-7-yl]-N-hydroxy-acrylamide] were 20 nM and 70 nM.
As for `CC(C)(C)NCc1c(C(C)(C)C)nc2cc(C=CC(=O)NO)ccn12` [Compound 3, 3-[2-tert-Butyl-3-(tert-butylamino-methyl)-imidazo[1,2-a]pyridin-7-yl]-N-hydroxy-acrylamide], the results for the IC50 on HDAC1 enzyme and in the experiment on Colo205 cells (setting [1]) were 130 nM and 740 nM, respectively.
On to `CCCCN(C)Cc1c(C(C)(C)C)nc2cc(C=CC(=O)NO)ccn12` [Compound 34, 3-{2-tert-Butyl-3-[(butyl-methyl-amino)-methyl]-imidazo[1,2-a]pyridin-7-yl}-N-hydroxy-acrylamide], for which the values for the IC50 on HDAC1 enzyme and with Colo205 cells (setting [1]) were 220 nM and 1700 nM, respectively.
Taken in the same sequence, the figures for `CCCCCN(CC)Cc1c(C(C)(C)C)nc2cc(C=CC(=O)NO)ccn12` [Compound 18, 3-{2-tert-Butyl-3-[(ethyl-pentyl-amino)-methyl]-imidazo[1,2-a]pyridin-7-yl}-N-hydroxy-acrylamide] were 130 nM and 750 nM.
On the same counts, the results for `CCCC(C)CN(CC)Cc1c(C(C)(C)C)nc2cc(C=CC(=O)NO)ccn12` (stereo not shown) [Compound 22, 3-(2-tert-Butyl-3-{[ethyl-(2-methyl-pentyl)-amino]-methyl}-imidazo[1,2-a]pyridin-7-yl)-N-hydroxy-acrylamide] are 470 nM and 2100 nM.
On the same counts, the results for `CCc1nc2cc(C=CC(=O)NO)ccn2c1CNC(C)(C)C` [Compound 62, 3-[3-(tert-Butylamino-methyl)-2-ethyl-imidazo[1,2-a]pyridin-7-yl]-N-hydroxy-acrylamide] are 30 nM and 260 nM.
Regarding `CCCCc1nc2cc(C=CC(=O)NO)ccn2c1CN(CC)CC(C)C` [Compound 40, 3-(2-Butyl-3-[(ethyl-isobutyl-amino)-methyl]-imidazo[1,2-a]pyridin-7-yl}-N-hydroxy-acrylamide], the IC50 amounted to 90 nM on HDAC1 enzyme and 570 nM with Colo205 cells (setting [1]).
On the same counts, the results for `CCCCc1nc2cc(C=CC(=O)NO)ccn2c1CN(CC)CCCC` [Compound 9, 3-{2-Butyl-3-[(butyl-ethyl-amino)-methyl]-imidazo[1,2-a]pyridin-7-yl}-N-hydroxy-acrylamide] are 60 nM and 160 nM.
On the same counts, the results for `CCN(CCC(C)C)Cc1c(CCC(C)C)nc2cc(/C=C/C(=O)NO)ccn12` [Compound 67, 3-[3-{[Ethyl-(3-methyl-butyl)-amino]-methy}-2-(3-methyl-butyl)-imidazo[1,2-a]pyridin-7-yl]-N-hydroxy-acrylamide] are 30 nM and 130 nM.
Taken in the same sequence, the figures for `CCN(CCC(C)(C)C)Cc1c(CC(C)C)nc2cc(/C=C/C(=O)NO)ccn12` [Compound 61] were 30 nM and 170 nM.
In the case of `CCCCc1nc2cc(C=CC(=O)NO)ccn2c1CN(CC)CC(CC)CC` [Compound 46, 3-(2-Butyl-3-{[ethyl-(2-ethyl-butyl)-amino]-methyl}-imidazo[1,2-a]pyridin-7-yl)-N-hydroxy-acrylamide], the IC50 on HDAC1 enzyme turned out to be 150 nM; with Colo205 cells (setting [1]) it was 390 nM.
Taken in the same sequence, the figures for `CCCCc1nc2cc(C=CC(=O)NO)ccn2c1CN(C)CCCC` [Compound 8, 3-{2-Butyl-3-[(butyl-methyl-amino)-methyl]-imidazo[1,2-a]pyridin-7-yl}-N-hydroxy-acrylamide] were 70 nM and 170 nM.
Taken in the same sequence, the figures for `CCCCN(CC)Cc1c(CCC(C)C)nc2cc(C=CC(=O)NO)ccn12` [Compound 66, 3-[3-[(Butyl-ethyl-amino)-methyl]-2-(3-methyl-butyl)-imidazo[1,2-a]pyridin-7-yl]-N-hydroxy-acrylamide] were 40 nM and 160 nM.
Taken in the same sequence, the figures for `CCN(CCC(C)(C)C)Cc1c(CCC(C)C)nc2cc(C=CC(=O)NO)ccn12` [Compound 68, 3-[3-{[(3,3-Dimethyl-butyl)-ethyl-amino]-methyl}-2-(3-methyl-butyl)-imidazo[1,2-a]pyridin-7-yl]-N-hydroxy-acrylamide] were 40 nM and 130 nM.
For `CCCCc1nc2cc(C=CC(=O)NO)ccn2c1CN(CC)CC` [Compound 7, 3-(2-Butyl-3-diethylaminomethyl-imidazo[1,2-a]pyridin-7-yl)-N-hydroxy-acrylamide], the IC50 at HDAC1 enzyme was determined as 180 nM; in the experiment with Colo205 cells (setting [1]), 680 nM.
On the same counts, the results for `CCN(Cc1c(C(C)(C)C)nc2cc(C=CC(=O)NO)ccn12)CC1CC1` [Compound 27, 3-{2-tert-Butyl-3-[(cyclopropylmethyl-ethyl-amino)-methyl]-imidazo[1,2-a]pyridin-7-yl}-N-hydroxy-acrylamide] are 330 nM and 2100 nM.
As for `CCCCc1nc2cc(C=CC(=O)NO)ccn2c1CN(CCC)CCCC` [Compound 10, 3-{2-Butyl-3-[(butyl-propyl-amino)-methyl]-imidazo[1,2-a]pyridin-7-yl}-N-hydroxy-acrylamide], the IC50 at HDAC1 enzyme turned out to be 90 nM; with Colo205 cells (setting [1]), 580 nM.
For `CCN(CCC(C)C)Cc1c(CC(C)C)nc2cc(C=CC(=O)NO)ccn12` [Compound 60, 3-(3-{[Ethyl-(3-methyl-butyl)-amino]-methyl}-2-isobutyl-imidazo[1,2-a]pyridin-7-yl)-N-hydroxy-acrylamide], the IC50 in the experiment on Colo205 cells (setting [1]) was found to be 150 nM.
Take `CCC(C)CN(CC)Cc1c(C(C)(C)C)nc2cc(C=CC(=O)NO)ccn12` (stereo not shown) [Compound 19, 3-(2-tert-Butyl-3-{[ethyl-(2-methyl-butyl)-amino]-methyl}-imidazo[1,2-a]pyridin-7-yl)-N-hydroxy-acrylamide]: the IC50 in the experiment on Colo205 cells (setting [1]) was found to be 2200 nM.
“3-(2-Butyl-3-{(ethyl-(2-methyl-pentyl)-amino]-methyl}-imidazo[1,2-a]pyridin-7-yl)-N-hydroxy-acrylamide [Compound 41]”: in the experiment with Colo205 cells (compound treatment 96 h), the IC50 was found to be 370 nM.
